Patent publication US5935982A, “Methods of treating retroviral infection and compounds useful therefor” (The University of North Carolina at Chapel Hill, priority 1997, dated 1999)

How the values were obtained:
in vitro = type: cell-based; settings: human, cem and magic cells
Procedure: (§1) Cell lines used were CEM cells, a human T-cell lymphona cell line, A. Kaplan et al, J. Virol. 67:4050-5 (1993), and Magic cells, J. Kimpton et al, J. Virol. 66:2232 (1992). The CEM cells were grown in RPMI-1640 medium supplemented with 5% FCS. The Magic Cells, a HELA derivative, were grown in DMEM/H supplemented with 5% FCS, G418 (20 mg/ml) and Hygromycin (10 mg/ml). The HIV isolate was strain HXB2, originally from Lee Ratner in the laboratory of Robert Gallo at the National Institutes of Health.
Three different toxicity tests were performed on the cell lines used to measure virus infectivity.
The initial test for toxicity utilized the XTT Assay as described by Weislow et al, J. Natl. Cancer Inst. 81:577 (1989). This is the standard assay used originally to measure cell toxicity by potential reverse transcriptase inhibitors. Briefly, cells were grown to cells/ml and drug dilutions were added to the medium. After two days incubation, XTT reagent is added and incubation is continued for 4 hours at 37° C. Following incubation, the plates are read at 450 minus 650 nm (the 650 value is the backround value which is automatically subtracted) with controls of media+XTT reagent without cells, and cells+media without reagent. Also a control of cells+media+XTT reagent was run for each plate. Medium without phenol red was employed to minimize background color as the XTT reagent goes from colorless (unreduced) to orange (reduced). The XTT reagent was freshly prepared on the day of assay as follows: 1 mg/ml of XTT in 0.01M phenazine methosulfate. The phenazine methosulfate solution was prepared ahead of time and stored at 4° C. in a dark bottle. The XTT reagent is added to the microtiter wells at 24 ul per 100 ul of medium. The O.D. was measured on a Vmax plate reader from Molecular Devices Co. with data reduction. Results are expressed as percent of untreated controls. The least toxic compounds were Compounds A, B, and F with toxicities values at 500 μM or greater.
Next, a plating efficiency test measured the ability of the cell to grow after incubation with drug for a number of days. Magic cells were grown from an initial cell concentration of 0.8×104 with or without various concentrations of test compound for 6 days. Plating ability of the cells was assessed by plating dilutions of each culture on plastic. Colony forming units were determined after growth for two to four days by counting colonies after staining the plates. Each sample was plated in duplicate and the colony number averaged.
The third test for cell toxicity assessed growth rate in the presence of the test compound versus a control culture. Magic cells were grown over a period of 15 days with or without various dilutions of test compound. Aliquots were removed every other day and the cells were counted in a hemocytometer.

HIV-1 integrase = biological target: T1, HIV-1 integrase (Human immunodeficiency virus type 1 group M subtype B, UniProt P04585); experiment: Integrase inhibition assay (site-specific cleavage/joining of labeled oligonucleotide substrate); type: biochemical, HIV-1 (HXB2 clone); settings: initial screening at 10 μM; assay in duplicate
T1 construct: using the integrase coding domain from the HXB2 clone; made in house; host or cells: E. coli
Procedure: Purification of Integrase Protein. Integrase was overproduced in E. coli from an inducible plasmid containing the integrase sequence under control of a lacI-regulated T7 polymerase using the integrase coding domain from the HXB2 clone of HIV-1 DNA (L. Ratner et al, AIDS Res. Hum. Retroviruses 3:57 (1987)), pT7fl1-IN. A one liter culture at an O.D. of 0.6 was induced by the addition of IPTG to 0.5 mM. After three hours, the cells were harvested by centrifugation and the pellets were stored at -70° C.
The integrase protein was purified by a modification of the method of Sherman and Fyfe, Proc. Natl. Acad. Sci. USA 87:5119 (1990). The cells were lysed by thawing in a buffer (50 mM Tris-HCl pH 7.5, 5 mM dithiothreitol, 1 mM EDTA, 1 mg/ml lysozyme) on ice at 6 ml/g bacterial pellet for 30 minutes, and then incubating at 37° C. for 5 minutes. The lysate was centrifuged at 12,000×g for one hour. The pellets were resuspended in 50 mM Tris-HCl, pH 7.5, 1 mM dithiothreitol, 1 mM EDTA, 1M NaCl (4 ml/g original bacteria). The homogenate was stirred for 30 minutes at 4° C. and recentrifuged for 30 minutes at 12,000×g.
The supernatant was made 0.8M in ammonium sulfate by the slow addition of powder with stirring over a 30 minute period. The extract was then centrifuged to remove any precipitate and applied to a phenyl sepharose column. After a 50 ml wash with high salt buffer (50 mM Tris-HCl, 1 mM EDTA, 5 mM DTT, 2M NaCl), the protein was eluted with a gradient from high salt to O salt buffer containing 10% (weight/vol) glycerol and further purified through a G75 Sephadex column to remove background nuclease. A one liter culture generates enough integrase activity to perform over a thousand drug inhibition assays. […]
Cleavage of specific sites is assessed as described in Sherman et al., supra, except that the assay buffer was the same as that reported by Chow et al, Science 255:723 (1992). The substrate employed is the same as that described for use in the dumbell assay described in Chow et al., J. Virol. 68:7869 (1994), the disclosure of which is incoroprated herein by reference in its entirety. Essentially, the assay is performed with an oligonucleotide of 31 nucleotides that is self-annealing to form a dumbell shape with a nick therein. This substrate mimics the integrated virus and is specifically recognized by integrase to release 2 fragments. When the substrate is end-labeled with γ^32 P-ATP and T4 polynucleotide kinase, and treated with integrase protein, the product is site-specific cleavage of the substrate to form a very different molecular weight when electrophoresed on a denaturing polyacrylamide gel. This allows the reaction to be more easily quantitated with the phosphorimager. This assay represents the step of the integrase reaction where integrase completes its action. The IC50 value reported in Table 1 is generated by regression analysis of the percent control reaction with integrase at various drug concentrations. Initial screening of the compounds was performed at a constant 10 μM concentration for each test compound. Those with activity at 10 μM, were then used to identify IC50 values.
The other assay used consisted of the single 20 mer oligonucleotides corresponding to either the U5 or U3 ends of HIV-1 are end-labeled with ^32 P, annealed with its complement, purified, and used under the same conditions as described above for the endonuclease assay. Reaction products are denatured with formamide, electrophoresed through 20% denaturing polyacrylamide gels and visualized by autoradiography. Both cleavage and ligation activity can be assessed from one gel. To assess the ligation activity alone, "precleaved" substrate that had the -2 cleavage artificially produced by using a radiolabelled 18 mer oligonucleotide was also used for some experiments
Testing as Integrase Inhibitors. Integrase overproduced in E. coli was purified as described above in accordance with Sherman et al, supra, and used in drug inhibition assays. […]

HIV-1 = HIV-1 inhibition assay in magic (magi) cells, β-galactosidase expressing cells counted; type: cell-based, HIV-1 strain HXB2; settings: for IC50: Human immunodeficiency virus 1, MAGI, magic cells, HIV-1, drug pretreatment 4 hours, fixed two days later, read-out: Anti-HIV IC50; for Index TD50/IC50: ratio of toxicity TD50 to anti-HIV IC50
Procedure: as §1
The magi cell assay described by Kimpton et al., supra, was used as described. This assay identifies individual cells infected with HIV-1 by the expression of tat, which transactivates an endogenous copy of the HIV-1 LTR linked to the lac2 reporter gene after integration, inducing β-galactosidase expression when Xgal is added to the cell medium. Any cell with integrated HIV-1 will turn blue. Thus, this assay provides a convenient way to determine the effect of HIV inhibitors at any early step up through the expression of tat, including the inhibition of integration.
The magic cells are plated in twelve-well plates one day prior to infection. The standard assay involves infection with approximately 200 infectious units of HIV-1. This gives an approximately 20 to 1 ratio of signal to background and sufficient numbers of infectious events to quantitate dim effects. The cells are pretreated with drug for 4 hours prior to virus infection, and virus adsorption takes place for 1 hour. The cells are washed with plain medium, and then medium with inhibitor is placed back on the cells. Two days later the cells are fixed after integration with Xgal the indicator reagent for β-galactosidase production. The number of β-galactosidase expressing cells are quantitated by light microscopy.
The results of comparisons of infectious units with or without various concentrations of the bis-benzimididazoles drugs in the magic cell assay are expressed as IC50 values and are compiled in Table 2 above. Note that the best anti-HIV compounds were generally also the best integrase inhibitors.

N=C(NC1CCCC1)c1ccc2nc(-c3ccc(-c4nc5ccc(C(=N)NC6CCCC6)cc5[nH]4)[nH]3)[nH]c2c1 [S-13]
CC50 (in vitro): 78.2 µM | IC50 (HIV-1 integrase): < 5 µM

c1cc2nc(-c3ccc(-c4nc5ccc(C6=NCCN6)cc5[nH]4)o3)[nH]c2cc1C1=NCCN1 [S-15]
CC50 (in vitro): 41.9 µM | IC50 (HIV-1): 8.01 µM | Index TD50/IC50 (HIV-1): 5.23 | IC50 (HIV-1 integrase): 0.6 µM

CC(C)NC(=N)c1ccc2nc(-c3cnc(-c4nc5ccc(C(=N)NC(C)C)cc5[nH]4)o3)[nH]c2c1 [S-4]
IC50 (HIV-1 integrase): < 10 µM

c1cnc(-c2ccc3nc(-c4ccc(-c5nc6ccc(-c7ncccn7)cc6[nH]5)[nH]4)[nH]c3c2)nc1 [S-10]
IC50 (HIV-1 integrase): < 10 µM

N=C(NC1CCCC1)c1ccc2nc(-c3ccc4oc(-c5nc6ccc(C(=N)NC7CCCC7)cc6[nH]5)cc4c3)[nH]c2c1 [S-6]
IC50 (HIV-1 integrase): 1.4 µM

N=C(N)c1ccc2nc(-c3ccc(-c4nc5ccc(C(=N)N)cc5[nH]4)[nH]3)[nH]c2c1 [S-8]
IC50 (HIV-1 integrase): 0.5 µM

Cn1c(-c2nc3ccc(C(=N)NC4CCCC4)cc3[nH]2)ccc1-c1nc2ccc(C(=N)NC3CCCC3)cc2[nH]1 [S-11]
CC50 (in vitro): 732 µM | IC50 (HIV-1 integrase): > 10 µM

CC(C)NC(=N)c1ccc2nc(-c3ccc4c(c3)Cc3cc(-c5nc6ccc(C(=N)NC(C)C)cc6[nH]5)ccc3-4)[nH]c2c1 [S-3]
IC50 (HIV-1 integrase): < 10 µM

c1cc2[nH]c(-c3ccc(-c4nc5cc(C6=NCCN6)ccc5[nH]4)[nH]3)nc2cc1C1=NCCN1 [S-9]
CC50 (in vitro): 213 µM | IC50 (HIV-1 integrase): > 10 µM

CC(C)NC(=N)c1ccc2nc(-c3ccc(-c4nc5ccc(C(=N)NC(C)C)cc5[nH]4)o3)[nH]c2c1 [S-16]
CC50 (in vitro): 238 µM | IC50 (HIV-1): 1.39 µM | Index TD50/IC50 (HIV-1): 170.88 | IC50 (HIV-1 integrase): < 10 µM

CC(C)NC(=N)c1ccc2nc(-c3ccc(-c4nc5ccc(C(=N)NC(C)C)cc5[nH]4)n3C)[nH]c2c1 [S-12]
CC50 (in vitro): 289 µM | IC50 (HIV-1 integrase): < 10 µM

c1cc(-c2nc3cc(C4=NCCN4)ccc3[nH]2)cc(-c2nc3cc(C4=NCCN4)ccc3[nH]2)c1 [S-2]
IC50 (HIV-1 integrase): > 10 µM

N=C(N)c1ccc2nc(-c3ccc4oc(-c5nc6ccc(C(=N)N)cc6[nH]5)cc4c3)[nH]c2c1 [S-5]
IC50 (HIV-1): 19.8 µM | IC50 (HIV-1 integrase): < 10 µM

N=C(N)c1ccc2nc(-c3cccc(-c4nc5ccc(C(=N)N)cc5[nH]4)c3)[nH]c2c1 [S-1]
CC50 (in vitro): 40 µM | IC50 (HIV-1 integrase): 1 µM

Cn1c(-c2nc3ccc(C(=N)N)cc3[nH]2)ccc1-c1nc2ccc(C(=N)N)cc2[nH]1 [S-7]
CC50 (in vitro): 90.3 µM | IC50 (HIV-1 integrase): 0.85 µM

N=C(N)c1ccc2nc(-c3ccc(-c4nc5ccc(C(=N)N)cc5[nH]4)o3)[nH]c2c1 [S-14]
CC50 (in vitro): 81.5 µM | IC50 (HIV-1): 26.7 µM | Index TD50/IC50 (HIV-1): 3.05 | IC50 (HIV-1 integrase): 0.9 µM
